Patent publication US20080226596A1, “Therapeutic compositions and methods useful in treating hepatitis” (priority 2006, published 2008)

Tests used:
GSTm8 = assay: In vitro PTPase assay, GSTm8; type: biochemical; conditions: 3-4 μg/ml or 10-100 μg/ml
Source text: In vitro PTPase assays were used to determine the effects of levamisole (Sigma), pentamidine (American Pharmaceutical Partners, Inc.), and ketoconazole (Sigma) on recombinant PTPases, following established procedures (Pathak et al., J. Imumol. 167, 3391 (2001); Pathak et al., Leukemia 16, 2285 (2002), Yi et al., J. Immunol. 169, 5978 (2002)) using a synthetic phosphotyrosine peptide or DiFMUP as the substrate as detailed above in section I.A.2.

WM9 cells = assay: WM9 melanoma cell growth, MTT assay; type: cell-based, human
Protocol: For cell proliferation assays, cells were grown in 10% FCS culture medium containing various amounts of IFNs and/or sodium stibogluconate in 96 well plates and cultured at 37° C. for 3 or 6 days as indicated. The numbers of viable cells in proliferation assays were determined by MTT assays as described in Phatak et al., J. Immunol. 167, 3391 (2001).
Dose response curves were generated for each drug alone, and also the combinations. Median effect plots were generated for IFNs alone, sodium stibogluconate alone, and the combination. The combination index (CI) was determined and plotted vs. fraction affected (FA). Data were analyzed in both modes, mutually exclusive and mutually nonexclusive. The interaction between two mutually nonexclusive drugs is described by the Equation CI=D1/Dx1+D2/Dx2+D1D2/Dx1Dx2, where Dx1 and Dx2 are the doses of drug 1 and drug 2 that are required to inhibit growth x %. […] When CI<1, drugs are synergistic, when CI=1, drugs are additive, and when CI>1, drugs are antagonistic.
Renca (Murphy, G. P., and W. J. Hrushesky. 1973. A murine renal cell carcinoma. J Natl Cancer Inst 50:1013), Jurkat (Gillis, S., and J. Watson. 1980. Biochemical and biological characterization of lymphocyte regulatory molecules. V. Identification of an interleukin 2-producing human leukemia T cell line. J Exp Med 152:1709) and WM9 (Forsberg, K., I. Valyi-Nagy, C. H. Heldin, M. Herlyn, and B. Westermark. 1993. Platelet-derived growth factor (PDGF) in oncogenesis: development of a vascular connective tissue stroma in xenotransplanted human melanoma producing PDGF-BB. Proc Natl Acad Sci USA 90:393) cell lines were obtained from a colleague at the Cleveland Clinic Foundation (CCF) and cultured in RPMI 1640 medium supplemented with 10% fetal calf serum (FCS). […] SSG has been described previously (Yi, T., M. K. Pathak, D. J. Lindner, M. E. Ketterer, C. Farver, and E. C. Borden. 2002. Anticancer activity of sodium stibogluconate in synergy with IFNs. J Immunol 169:5978).
NIH3T3 (Yi, et al., Blood 85, 87 (1995)), WM9 (Forsberg, et al., Proc. Nat. Acad Sci. USA 90, 393 (1993)), DU145 (Mickey, et al., Cancer Res. 37, 4049 (1977)), LoVo (Drewinko, et al., Cancer Res. 36, 467 (1976)), HEY (Buick, et al., Cancer Res. 45, 3668 (1985)), U251 (Yoshida, et al., Cancer 50, 410 (1982)), A549 (Giard, et al., J. Natl. Cancer Inst. 51, 1417 (1973)) and SK-N-SH (Helson, et al., Cancer Res. 35, 2594 (1975)) cell lines have been described and were cultured in RPMI 1640 supplemented with 10% fetal calf serum (FCS). For measurement of sodium stibogluconate effects on cell growth in vitro, cells were cultured in the absence (−) or presence (+) of various amounts of sodium stibogluconate for 6 days with viable cells quantified by MTT assays (Mosmann, J. Immunol. Methods 65, 55 (1983)). Percentages of growth inhibition by sodium stibogluconate were calculated (.+−.x

## N=C(N)c1ccc(OCCCCCOc2ccc(C(=N)N)cc2)cc1 [pentamidine]
GSTm8
  inhibitory activity against GSTm8: no obvious inhibitory activity
WM9 cells; most obviously at 0.625-1.25 μg/ml
  IFN-alpha-induced growth inhibition of WM9 with pentamidine: augmented IFN-alpha-induced growth inhibition

## CC(=O)N1CCN(c2ccc(OCC3COC(Cn4ccnc4)(c4ccc(Cl)cc4Cl)O3)cc2)CC1 (stereo not shown) [ketoconazole]
GSTm8
  inhibitory activity against GSTm8: no obvious inhibitory activity
WM9 cells; ketoconazole 40 μg/ml
  effect on IFN-alpha activity against WM9: minor augmenting effect on IFN-alpha activity
WM9 cells; ketoconazole 0.625-20 μg/ml, single agent or with IFN-alpha
  activity against WM9 cells: no apparent activity

## O.O.O.O.O.O.O.O.O.O=C([O-])[C@@H]1[O][Sb]2([O-])([O][Sb]34([OH])[O][C@H]([C@H](O)CO)[C@H]([O]3)[C@H](C(=O)[O-])[O]4)[O][C@H]([C@H](O)CO)[C@@H]1[O]2.[Na+].[Na+].[Na+] [sodium stibogluconate]
WM9 cells; SSG, 6 days, comparable conditions to Renca
  WM9 cell growth: inhibited by SSG in a dose-dependent manner
WM9 cells; single agent, 50 and 100 μg/ml, day 6
  killing of WM9 cells: killed all cells
